Test: Compatibility of artesunate and ferroquine combined within one and the same tablet
Assay type: physicochemical
Details: color of artesunate goes from white to brown
Text: However, artesunate and ferroquine are strongly incompatible if the two active ingredients are combined within one and the same tablet.

C[C@H]1[C@H](OC(=O)CCC(=O)O)O[C@@H]2O[C@@]3(C)CC[C@H]4[C@H](C)CC[C@@H]1[C@@]24OO3 [artesunate, Artesunate]
stability of artesunate when combined with ferroquine within the same tablet: rapid increase in the level of artesunate degradation products

From patent US20120237600A1, “MULTILAYER PHARMACEUTICAL COMPOSITION THAT CAN BE DISPERSED IN WATER AND WHICH CONTAINS A COMBINATION OF ANTIMALARIAL AGENTS” (SANOFI, priority 2009, published 2012)
